Measurements taken from patent publication US20240109890A1, “BRIDGED HETEROCYCLYL-SUBSTITUTED PYRIMIDINE COMPOUNDS, PREPARATION METHOD AND MEDICAL USE THEREOF” (THE NATIONAL INSTITUTES OF PHARMACEUTICAL R&D CO., LTD., priority 2021, published 2024).

Experiments:
JAK1 kinase = JAK1 kinase (Homo sapiens (Human), UniProt P23458); assay: In vitro inhibitory activity on JAK1 kinase (ADP-Glo Kinase Assay); format: biochemical; conditions: JAK1 4 nM, 1 mM ATP, IRS1 substrate
Experimental: Experimental materials: JAK1 kinase (Invitrogen, PV4744), ATP (Promega, V915B), ADP-Glo Kinase Assay (Promega, V9101), IRS1 (Signalchem, 140-58-1000). Sample preparation: The compounds of the present invention and the control product were dissolved in DMSO solvent respectively to formulate into 10 mM mother liquor. The final reaction maximum concentration of the compound was 10 μM, 3-fold dilution, 10 concentration gradients, and duplicate wells for each concentration gradient. Experimental process: 0.1 μL of the compound to be tested was transferred into a 384-well reaction plate (PE, 6007290) via Echo and centrifuged at 1000 rpm/min for 1 min. 5 μL of JAK1 kinase (final concentration of 4 nM) was transferred into the 384-well reaction plate, which was then centrifuged at 1000 rpm/min for 1 min, and incubated at 25° C. for 15 min. 5 μL of substrate mixture (1 mM ATP, IRS1 0.05 mg/ml, kinase buffer solution) was transferred into the 384-well reaction plate, which was then centrifuged at 1000 rpm/min for 1 min, and incubated at 25° C. for 60 min. 10 μL of ADP-Glo was transferred into the 384-well reaction plate, which was then centrifuged at 1000 rpm/min for 1 min, and incubated at 25° C. for 40 min. 20 μL of test solution was transferred into the 384-well reaction plate, which was then centrifuged at 1000 rpm/min for 1 min and incubated at 25° C. for 40 min. RLU (Relative luminescence unit) signal was read by using an Envision multifunctional plate reader. The signal intensity was used to characterize the degree of the kinase activity. […] IC50 value of 0-100 nM is shown as A, IC50 value of 100-300 nM is shown as B, IC50 value of 300-1000 nM is shown as C, and IC50 value which is greater than 1000 nM is shown as D. NT means not tested.

[1] = test system: IFN-2α-stimulated TYK2/JAK1-mediated pathway; assay: Inhibition of STAT3 signaling pathway of human whole blood (IFN-2α induced pSTAT3, flow cytometry); format: cell-based; conditions: IFN-2α stimulation, CD3/pSTAT3 staining
Experimental: Sample preparation: The compounds of the present invention and the control were dissolved in DMSO solvent respectively to formulate into 10 mM mother liquor. The final reaction maximum concentration of the compound was 10 μM, 3-fold dilution, 10 concentration gradients, and duplicate wells for each concentration gradient.
Experimental process: 20 μL of the compound of the present invention was added to a flow cytometer tube (BD, 352052) containing 180 μL of anticoagulant sodium heparin. 20 μL of PBS was added to the control tube. The sample was incubated at 37° C. for 30 min. 2 μL of stimulating factor was added and then incubated at 37° C. for 20 min. 1 mL of erythrocyte lysate was added, and the sample was repeatedly inverted 5 to 10 times or vortexed and then incubated at 37° C. for 10 min. The sample was centrifuged at 600 g for 6 to 8 min. The supernatant was discarded. The mixture was vortexed until the precipitate was suspended. The cells were washed with 3 mL of PBS and centrifuged at 600 g for 6 to 8 min. The supernatant was discarded. The mixture was vortexed until the precipitate was suspended. 1 mL of membrane breaking solution was added, and the system was mixed gently, incubated on ice for 30 min, and centrifuged at 600 g for 6 to 8 min. The supernatant was discarded. The mixture was vortexed until the precipitate was suspended. The cells were washed. 3 mL of PBS was added. […]

[2] = Pharmacokinetic study in rats; format: in vivo, rat; conditions: for F / AUC(0-t) / Cmax / half-life: male SD rats, i.v. 1 mg/kg, p.o. 5 mg/kg; for AUC(0-t) / Cmax / half-life: rat, plasma, route of this value not stated; for pharmacokinetic properties (overall statement): rats
Experimental: Sample preparation: The compounds of Examples 1-a and 1-b were formulated into 0.2 mg/mL and 0.5 mg/mL solutions with 20% cyclodextrin.
Experimental method: Male SD rats (Beijing Vital River Laboratory Animal Technology Co., Ltd.) were used, the intravenous dose was 1 mg/kg (intravenously, i.v). Blood was collected from the canthus venous plexus before administration and at 0, 5 minutes, 15 minutes, 30 minutes, 1 hour, 2 hours, 4 hours, 6 hours and 8 hours after administration. The oral dose was 5 mg/kg (oral, p.o). Blood was collected from the canthus venous plexus before administration and at 15 minutes, 30 minutes, 1 hour, 2 hours, 4 hours, 6 hours and 8 hours after administration. The blood was anticoagulated with sodium heparin, centrifuged at 3500 rpm for 10 minutes at 4° C. The plasma was obtained and stored at −20° C. until testing.
50 μL of the plasma sample melted at room temperature was precisely measured and placed in a 1.5 mL EP tube, followed by adding 400 μL of verapamil internal standard working solution (China National Institute for Drug Control). The EP tube was vortexed vigorously for 1 minute, and centrifuged at 16000 rpm for 10 minutes. The supernatant was collected, filtered with a 0.22 μm organic membrane (AS081320-T, Agela Technologies), and added to an injection vial. The plasma concentration was obtained by LC/MS (Waters UPLC I Class/ TQ-S micro). The main pharmacokinetic parameters of compounds 1-a and 1-b in rats were obtained by DAS3.3.0 software.

AIA model = assay: AIA pharmacodynamic study in rats (complete Freund's adjuvant, arthritis scoring); format: in vivo, rat; conditions: female Lewis rats, arthritis score; for efficacy in the AIA model versus reference PF-06700841: low dose 1 mg/kg and high dose 3 mg/kg groups
Experimental: Experimental materials: Complete Freund's adjuvant (Chondrex, 7027); positive control compound PF-06700841, which has a structure of
Experimental process: The in vivo efficacy of the compounds of the present invention was investigated. 8-Week-old female Lewis rats (Beijing Vital River Laboratory Animal Technology Co., Ltd.) were subcutaneously injected with 0.1 mL of complete Freund's adjuvant at a single site on the base of their tails, and grouped 13 days after modeling. 8 groups were divided: the normal group, the model group, the PF-06700841 low dose group, the PF-06700841 high dose group, the compound 1-a low dose group, the compound 1-a high dose group, the compound 1-b low dose group, and the compound 1-b high dose group (the compounds to be tested were formulated into 0.1 mg/mL and 0.3 mg/mL solutions with 20% cyclodextrin solution). 20% cyclodextrin was administered to the model group, 1 mg/kg of the test compound was administered to the low dose group, and 3 mg/kg of the test compound was administered to the high dose group. The scores were evaluated every 2 days after administration. Scoring criteria: 0 point: no redness and swelling; 1 point: mild redness and swelling of ankle joints and wrist joints; 2 points: moderate redness and swelling of ankle joints and wrist joints; 3 points: severe redness and swelling of the paw including the fingertips; 4 points: maximal inflammation of the extremities, including multiple joints. The scoring results were analyzed by Graph prism9.0 software.
FIG. 1 is a graph showing the rat AIA pharmacodynamic scoring results of the compounds of the present invention.

JAK1 kinase, sequence (P23458 whole entry): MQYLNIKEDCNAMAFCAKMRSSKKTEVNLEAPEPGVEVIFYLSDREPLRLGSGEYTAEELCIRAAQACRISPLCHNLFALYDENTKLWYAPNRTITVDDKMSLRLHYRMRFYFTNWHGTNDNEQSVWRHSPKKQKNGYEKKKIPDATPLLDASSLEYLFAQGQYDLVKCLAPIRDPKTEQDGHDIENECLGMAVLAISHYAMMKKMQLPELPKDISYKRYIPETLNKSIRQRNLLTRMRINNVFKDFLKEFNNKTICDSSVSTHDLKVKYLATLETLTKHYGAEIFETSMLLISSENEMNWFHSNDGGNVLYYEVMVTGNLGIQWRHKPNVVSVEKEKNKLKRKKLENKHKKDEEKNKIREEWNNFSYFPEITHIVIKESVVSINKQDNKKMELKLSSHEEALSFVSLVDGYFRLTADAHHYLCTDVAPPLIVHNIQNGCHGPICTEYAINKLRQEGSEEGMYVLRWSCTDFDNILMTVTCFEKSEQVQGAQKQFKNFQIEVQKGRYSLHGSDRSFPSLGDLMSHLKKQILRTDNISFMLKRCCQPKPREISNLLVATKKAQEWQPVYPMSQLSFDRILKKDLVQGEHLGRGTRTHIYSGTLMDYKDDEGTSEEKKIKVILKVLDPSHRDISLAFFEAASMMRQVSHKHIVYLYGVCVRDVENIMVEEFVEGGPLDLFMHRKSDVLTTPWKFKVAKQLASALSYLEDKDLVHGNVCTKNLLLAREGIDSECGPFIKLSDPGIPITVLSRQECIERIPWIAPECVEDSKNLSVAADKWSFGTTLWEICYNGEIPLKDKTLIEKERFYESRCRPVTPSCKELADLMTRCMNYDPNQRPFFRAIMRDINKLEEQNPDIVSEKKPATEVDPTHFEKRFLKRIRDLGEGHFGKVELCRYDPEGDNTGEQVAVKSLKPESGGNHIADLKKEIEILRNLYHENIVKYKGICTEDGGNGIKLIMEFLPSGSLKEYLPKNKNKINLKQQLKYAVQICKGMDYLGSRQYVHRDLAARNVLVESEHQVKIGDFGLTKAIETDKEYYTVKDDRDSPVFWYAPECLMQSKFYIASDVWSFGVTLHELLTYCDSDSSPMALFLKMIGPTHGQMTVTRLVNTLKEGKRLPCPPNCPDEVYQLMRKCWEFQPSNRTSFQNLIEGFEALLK

Row | Structure (SMILES) | IC50 (JAK1 kinase) | IC50 [1] | F [2] | AUC(0-t) [2] | Cmax [2] | half-life [2] | pharmacokinetic properties (overall statement) [2] | efficacy in the AIA model versus reference PF-06700841 (AIA model) | efficacy in the AIA model versus isomer 1-b (AIA model; 1 mg/kg and 3 mg/kg)
1 | Cn1cc(Nc2nccc(C3=C[C@@H]4CC[C@H](C3)N4C(=O)[C@H]3C[C@@H]3F)n2)cn1 [Compound 2-a, ((1R,2S)-2-fluorocyclopropyl)((1S,5R)-3-(2-((1-methyl-1H-pyrazol-4-yl)amino)pyrimidin-4-yl)-8-azabicyclo[3.2.1]oct-2-en-8-yl)methanone] | 300 to 1000 nM |  |  |  |  |  |  |  | 
2 | Cn1cc(Nc2nccc(C3=CC4CCC(C3)N4C(=O)[C@H]3C[C@@H]3F)n2)cn1 (stereo partly drawn) [Compound 2, ((1R,2S)-2-fluorocyclopropyl)(3-(2-((1-methyl-1H-pyrazol-4-yl)amino)pyrimidin-4-yl)-8-azabicyclo[3.2.1]oct-2-en-8-yl)methanone] | 300 to 1000 nM |  |  |  |  |  |  |  | 
3 | Cn1cc(Nc2nccc(C3=CC4CCC(C3)N4C(=O)[C@@H]3C[C@H]3F)n2)cn1 (stereo partly drawn) [Compound 1, ((1S,2R)-2-fluorocyclopropyl)(3-(2-((1-methyl-1H-pyrazol-4-yl)amino)pyrimidin-4-yl)-8-azabicyclo[3.2.1]oct-2-en-8-yl)methanone] | < 100 nM |  |  |  |  |  |  |  | 
4 | Cn1cc(Nc2nccc(C3=C[C@H]4CC[C@@H](C3)N4C(=O)[C@@H]3C[C@H]3F)n2)cn1 [Compound 1-b, ((1S,2R)-2-fluorocyclopropyl)((1R,5S)-3-(2-((1-methyl-1H-pyrazol-4-yl)amino)pyrimidin-4-yl)-8-azabicyclo[3.2.1]oct-2-en-8-yl)methanone] | < 100 nM | < 100 nM | A (F>50% is shown as A) | 500 to 1000 ng·h/mL | 300 to 500 ng/mL | > 1 h | good pharmacokinetic properties | significantly better than that of the reference PF-06700841 | 
5 | Cn1cc(Nc2nccc(C3=C[C@H]4CC[C@@H](C3)N4C(=O)[C@H]3C[C@@H]3F)n2)cn1 [Compound 2-b, ((1R,2S)-2-fluorocyclopropyl)((1R,5S)-3-(2-((1-methyl-1H-pyrazol-4-yl)amino)pyrimidin-4-yl)-8-azabicyclo[3.2.1]oct-2-en-8-yl)methanone] | 100 to 300 nM |  |  |  |  |  |  |  | 
6 | Cn1cc(Nc2nccc(C3=C[C@@H]4CC[C@H](C3)N4C(=O)[C@@H]3C[C@H]3F)n2)cn1 [Compound 1-a, ((1S,2R)-2-fluorocyclopropyl)((1S,5R)-3-(2-((1-methyl-1H-pyrazol-4-yl)amino)pyrimidin-4-yl)-8-azabicyclo[3.2.1]oct-2en-8-yl)methanone] | < 100 nM | < 100 nM | A (F>50% is shown as A) | > 1000 ng·h/mL | > 500 ng/mL | > 1 h | good pharmacokinetic properties | significantly better than that of the reference PF-06700841 | significantly better than that of isomer 1-b
